For one series, the system named is GT1b (Con1) HCV replicon. The experiment in a line: HCV replicon assay, wild type GT1b (Con1), luciferase based, stable format. It counts as cell-based, hepatitis C virus. The conditions noted are these: Huh-7 cells. On the procedure: (§1) The antiviral activity of the test compounds was assessed in the wild type GT1b (Con1), GT1a (H77), and GT1b/2a, GT1b/3a, GT1b/4a and GT1b/5a NS5B chimeric replicons, as well as the NS5B mutant replicons listed in Table 2a and 2b.
(§2) All the replicon assays were luciferase based in Huh-7 cells, either in stable format (GT1b and GT1a) or by transient transfection by electroporation (chimeric and mutant replicons). For a standard HCV replicon assay, stable or transiently transfected Huh-7 cells were seeded in 96-well plates (5,000 cells/well), cultured in DMEM containing 10% FBS, and incubated at 37° C., 5% CO2. On the following day, test compounds were diluted with assay media and added to the appropriate wells (final DMSO concentration in the cell culture medium was 0.5%). Assay reference positive control was included in each run to ensure assay performance. Cells were incubated at 37° C., 5% CO2 for 72 hours, at which time the cells were still sub-confluent. The antiviral activity was determined by measuring replicon reporter firefly luciferase activity using Bright Glo kit in accordance with the protocol provided by the supplier (Promega). The toxicity of the test compounds was assessed by CytoTox-1 cell proliferation assay (Promega). The half maximal effective concentration (EC50) and the half maximal toxic concentration (TC50) values were calculated using the GraphPad Prism software.
A general note: Replicon systems follow genome replication, usually without infectious particles.

Series [1] relates to GT1b/2a NS5B chimeric replicon. The experiment in a line: HCV replicon assay, GT1b/2a NS5B chimeric replicon, transient transfection. To be noted: Hepatitis C virus, Huh-7, 72 h, read-out: GT2a EC50, GT1b/2a NS5B chimeric replicon, Huh-7 cells, luciferase, 72 hours. It counts as cell-based, hepatitis C virus. The method, then:
as §1
(§3) To generate HCV NS5B chimeric replicons, the GT1 b replicon was used as a backbone with the NS5B gene replaced with the NS5B gene of GT2a, GT3a, GT4a and GT5a derived from clinical isolates. These NS5B genes were cloned into the GT1b backbone and were confirmed by sequencing.
as §2

In series [2] the test system is GT1b/3a NS5B chimeric replicon. The experiment in a line: HCV replicon assay, GT1b/3a NS5B chimeric replicon, transient transfection. In kind it is cell-based, hepatitis C virus. To be noted: Hepatitis C virus, Huh-7, 72 h, read-out: GT3a EC50, GT1b/3a NS5B chimeric replicon, Huh-7 cells, luciferase, 72 hours. On the procedure:
as §1, §3, §2

In series [3] the test system is GT1b/5a NS5B chimeric replicon. Put plainly: HCV replicon assay, GT1b/5a NS5B chimeric replicon, transient transfection. It counts as cell-based, hepatitis C virus. To be noted: Hepatitis C virus, Huh-7, 72 h, read-out: GT5a EC50, GT1b/5a NS5B chimeric replicon, Huh-7 cells, luciferase, 72 hours. The method, then: as §1, §3, §2
Series [4] has as its system GT1b S282T NS5B mutant replicon. Put plainly: HCV NS5B mutant replicon assay, GT1b S282T. It counts as cell-based. To be noted: Hepatitis C virus, Huh-7, 72 h, read-out: GT1b S282T EC50. The method, then: as §1
(§4) The HCV replicon mutants were generated by site-directed mutagenesis (SDM). The SDM was performed by PCR and the PCR fragments were inserted into the backbone replicon construct. The inserted PCR fragments and the mutants were confirmed by sequencing.
as §2

For series [5], the system named is GT1b S96T NS5B mutant replicon. Put plainly: HCV NS5B mutant replicon assay, GT1b S96T. It counts as cell-based. The conditions noted are these: Hepatitis C virus, Huh-7, 72 h, read-out: GT1b S96T EC50. The method, then: as §1, §4, §2
The test system of series [6] is GT1b C316N NS5B mutant replicon. The experiment in a line: HCV NS5B mutant replicon assay, GT1b C316N. It counts as cell-based. To be noted: Hepatitis C virus, Huh-7, 72 h, read-out: GT1b C316N EC50. The method, then:
as §1, §4, §2

Series [7] relates to GT3a S282T NS5B mutant replicon. Put plainly: HCV NS5B mutant replicon assay, GT3a S282T. In kind it is cell-based. The conditions noted are these: Hepatitis C virus, Huh-7, 72 h, read-out: GT3a S282T EC50. On the procedure: as §1, §3, §4, §2
Series [8] deals with GT3a V321A NS5B mutant replicon. The experiment in a line: HCV NS5B mutant replicon assay, GT3a V321A. In kind it is cell-based. To be noted: Hepatitis C virus, Huh-7, 72 h, read-out: GT3a V321A EC50. The method, then: as §1, §3, §4, §2
Series [9] is described as follows: Nucleoside phosphoester stability in simulated gastric fluid. In kind it is in vitro ADME. The conditions noted are these: simulated gastric fluid pH 1.2, 2 μM, 37° C. On the procedure:
Test compounds at 2 μM were incubated at 37° C. with simulated gastric fluid (SGF, 0.2% (w/v) sodium chloride in 0.7% (v/v) hydrochloric acid, deionized water, 0.3% pepsin (w/v), pH 1.2). Duplicate samples were used. Samples were removed at 0, 15, 30, 60, 120, 360 and 1440 min, immediately mixed with cold acetonitrile containing internal standard (IS), and stored at −80° C. before analysis. Omeprazole was used as a positive control. Samples were analyzed by LC/MS/MS method, and disappearance of test compound was assessed by comparison of peak area ratios of analyte/IS and reported as % test compound remaining at each time point.

Series [10] can be described thus: Nucleoside phosphoester stability in simulated intestinal fluid. In kind it is in vitro ADME. On the procedure:
Test compounds at 2 μM were incubated at 37° C. with simulated intestinal fluid (SIF), which contains 0.68% (w/v) monobasic potassium phosphate and 1% (w/v) pancreatin in ultra-pure water (pH 6.8). Duplicate samples were used. Samples were removed at 0, 15, 30, 60, 120, 360 and 1440 min, immediately mixed with cold acetonitrile containing an internal standard (IS), and stored at −80° C. before analysis. Chlorambucil was used as a positive control. Samples were analyzed by a LC/MS/MS method, and disappearance of test compound was assessed by comparison of peak area ratios of analyte/IS and reported as % test compound remaining at each time point.

The mark [11] stands for this setting: Hepatitis C virus, GT1B, Huh-7, 72 h.

Data on two compounds can be found in US20180346505A1, “MONONUCLEOTIDES HAVING A BIOREVERSIBLE DISULFIDE GROUP” (priority 2014, published 2018).

As to `CC(C)(C)SSc1ccccc1CCOP1(=O)OC[C@H]2O[C@@H](n3ccc(=O)[nH]c3=O)[C@](C)(F)[C@@H]2O1` (single isomer, unassigned) [Compound 7A], the EC50 was 9 nM with GT1b (Con1) HCV replicon (setting [11]); 5 to 8 nM in the series on GT1b (Con1) HCV replicon (72 hours); 3 nM in series [1]; 8 nM in [2]; 8 nM in [3]; 65 nM in series [4]. Further, the EC50 was determined as 8 nM in series [5], 9 nM in [6], 44 nM in series [7] and 12 nM in [8]. In addition, the “% Remaining” value in [9] (0 min) is recorded as 100.00%; in series [9] (15 min), 95.13%; in series [9] (30 min), 99.01%; in series [9] (60 min) it was 92.49%; in series [9] (120 min) it was 91.52%; in [9] (360 min) it was 91.60%. The “% Remaining” value in [9] (1440 min) is reported as 70.36%; in series [10] (simulated gi fluid, 0 h, 2 μM, pH 6.8) it was 100.00%; in series [10] (simulated gi fluid, 0.25 h, 2 μM, pH 6.8), 102.65%; in series [10] (simulated gi fluid, 0.5 h, 2 μM, pH 6.8), 104.34%; in series [10] (simulated gi fluid, 1 h, 2 μM, pH 6.8), 111.04%; in series [10] (simulated gi fluid, 2 h, 2 μM, pH 6.8), 101.89%. Moreover, the “% Remaining” value in series [10] (simulated gi fluid, 6 h, 2 μM, pH 6.8) is listed as 121.95%; in series [10] (simulated gi fluid, 24 h, 2 μM, pH 6.8), 51.70%.

As to `CC(C)OC(=O)[C@H](C)N[P@](=O)(OC[C@H]1O[C@@H](n2ccc(=O)[nH]c2=O)[C@](C)(F)[C@@H]1O)Oc1ccccc1` [sofosbuvir, reference compound], the EC50 in the series with GT1b (Con1) HCV replicon (setting [11]) was 36 to 66 nM; in series [1] it was 36 nM; in [2], 90 to 95 nM; in [3] it was 65 nM; in series [4] it was 446 to 554 nM; in [5], 62 to 314 nM. Also, the EC50 in [6] is 25 nM; in series [7] it was 84 to 572 nM; in series [8], 166 nM. The “% Remaining” value is on record as 100.00% in [9] (0 min); 93.47% in [9] (15 min); 99.50% in series [9] (30 min); 99.63% in [9] (60 min); 95.33% in [9] (120 min); 87.35% in [9] (360 min). For the same compound, the “% Remaining” value in series [9] (1440 min) is given as 61.36%; in [10] (simulated intestinal fluid pH 6.8, 2 μM, 37° C., 0 min), 100.00%; in [10] (simulated intestinal fluid pH 6.8, 2 μM, 37° C., 15 min), 5.57%; in [10] (simulated intestinal fluid pH 6.8, 2 μM, 37° C., 30 min), 0.00%; in [10] (simulated intestinal fluid pH 6.8, 2 μM, 37° C., 60 min), 0.00%; in [10] (simulated intestinal fluid pH 6.8, 2 μM, 37° C., 120 min), 0.00%. The “% Remaining” value is 0.00% in series [10] (simulated intestinal fluid pH 6.8, 2 μM, 37° C., 360 min) and 0.00% in series [10] (simulated intestinal fluid pH 6.8, 2 μM, 37° C., 1440 min).
